Experimental data: patent US12590953B2, “Methods for screening cereblon modifying compounds” (CELGENE CORPORATION, priority 2018, dated 2026)
“Also recorded” adds a separate entry of the source.

Key:
[1] = test system: SALL4; experiment: SALL4 immunohistochemistry in rabbit embryos; format: in vivo; conditions: pregnant rabbits, 180 mg/kg per day from GD7, embryos GD8-12; 180 mg/kg/day
Experimental: All animals were housed and fed according to IACUC approved procedures. The rabbits either remained untreated (n=4 per time point) or received 180 mg/kg of Thalidomide per day (n=5 per time point) starting on GD7. Dose levels and sensitive gestation windows were selected based on previously reported finding in Thalidomide teratogenicity studies (Christian MS, birth defect research, 2007)
Cesarean sections were performed in each rabbit 3 hours after the last Thalidomide dose to ensure maximum plasma concentration of Thalidomide (CMax=3 hours) (Hui et al, Reproductive Toxicology, 2014). The uteri were removed, the implantation sites were counted and mortality and resorptions noted during embryo dissection. GD8 embryos were not dissected and were fixed in situ attached to the placental site and uterine wall. The entire implantation site was processed, embedded in paraffin and sectioned at 4 microns for immunohistochemistry. GD 9-12 embryos were collected with fetal membranes, fixed in 10% Neutral Buffered Formalin for 24 hours and transferred to 70% Ethanol. After fixation fetal membranes were removed and embryos processed, embedded in paraffin and sectioned at 4 microns for immunohistochemistry and in situ hybridization procedures.
Rabbit embryos were stained for SALL4, and mouse testis were stained for SALL4 and ZFP91. […]

[2] = test system: SALL4 binding to cereblon; format: cell-based, human
Experimental: Binding of full length SALL4 to cereblon in cells was then tested by co-immunoprecipitation (see FIG. 3). HA-tagged WT, G416A, or G600A SALL4 was immunoprecipitated from cells, and the level of co-purifying cereblon was assessed by western blot. Briefly, a Lenti-x 293 cell line with a CRISPR-cas9 knock-out of cereblon and stable expression of HA-tagged SALL4 or SALL4 mutants was transfected with either GST-cereblon or empty vector. […] The amount of co-purifying GST-cereblon was then assessed by western blot.

[3] = test system: SALL4 binding to cereblon; experiment: Co-immunoprecipitation of CRBN and SALL4 variants in lenti-X-293 cells expressing GST-CRBN; format: cell-based, human; conditions: 40 μM thalidomide, 8 hours, 1 μM MLN4924
Experimental: All cells were treated with 1 μM MLN4924, and either 40 μM thalidomide (+) or DMSO vehicle control (−) as indicated for 8 hours (n=2 biological replicates).
Lenti-X-293 cells were cotransfected with pDEST27-CRBN, which encodes GST-CRBN, and pLOC empty vector (Thermo Fisher), which contains a blasticidin resistant gene. Two days after transfection, cells were trypsinized and seeded into 96-well plates through limiting dilution. After selectin with blasticidin (20 μg/mL) for 2 weeks, single clones were picked, expanded and screened for overexpression of GST-CRBN via immunoblot analysis with anti-CRBN65 antibody. Next, lenti-X-293 cells stably expressing GST-CRBN Human were infected with lentiviruses expressing SALL4 wild-type and variants to generate lenti-x-293 cells stably expressing GST-CRBN and SALL4. Then, cells were treated with DMSO or 40 μM thalidomide for 8 hours in the presence of 1 μM MLN4924, and lysed in Buffer B [50 mM Tris (pH 7.4), 150 mM NaCl, 0.5% NP-40, 10% glycerol, 1× Complete Ultra protease inhibitor (Roche), and 1× PhosphoSTOP (Roche)]. […] After washing the anti-HA resin with Buffer B for 6 times, anti-HA immunoprecipitates were eluted by boiling in 2×LDS loading buffer at 90° C. for 5 minutes, and then subjected to immunoblot analysis.

O=C1CCC(N2C(=O)c3ccccc3C2=O)C(=O)N1 (stereo not shown) [thalidomide]
SALL4 levels in embryos [1]: significant decrease in SALL4 levels which was most pronounced on GD12; also recorded: downregulation of SALL4 levels in rabbit embryos | Binding of G416A SALL4 to cereblon ([2]; HA-tagged G416A SALL4, anti-HA pull-down): disrupted the binding significantly | Binding of G600A SALL4 to cereblon ([2]; HA-tagged G600A SALL4, anti-HA pull-down): strong, compound-dependent binding to cereblon | Binding of WT SALL4 to cereblon (co-purifying GST-cereblon, western blot) ([2]; HA-tagged WT SALL4, anti-HA pull-down): strong, compound-dependent binding to cereblon | Binding of G416A SALL4 to cereblon (co-IP) [3]: disrupted cereblon binding in cells | Binding of G600A SALL4 to cereblon (co-IP) [3]: able to bind cereblon | Binding of wild-type SALL4 to cereblon (co-IP) [3]: able to bind cereblon
